Test results taken from PMC8102414 (Heliyon, 2021).
Converted amounts (≈) assume the structure as drawn.

How the values were obtained:
[1] = system: advanced glycation end products (AGEs); test: Glycation inhibition assay; assay type: biochemical; settings: Inactive at >100 μM
[2] = system: 3T3-L1 adipocyte cells; test: Glucose consumption assay; assay type: cell-based; settings: induction of glucose consumption, 3T3-L1 adipocyte cells; Inactive at >100 μM
[3] = system: RAW 264.7 cells; test: Nitric oxide production inhibition assay; assay type: cell-based; settings: LPS-stimulated NO production in RAW 264.7 cells; Inactive at >100 μM
[4] = system: Salmonella typhi DMST 22842; test: microbe, parasite or virus in culture; assay type: cell-based; settings: for MIC: Salmonella enterica, TYPHI, read-out: MIC (μg/mL) ST; for MIC (μg/mL) ST: Gram-negative, Salmonella typhi (DMST 22842), Inactive at >128 μg/mL
[5] = system: Enterococcus faecalis ATCC 29212; test: Antimicrobial MIC, 2-fold serial dilution; settings: for MIC (μg/mL) EF: Gram-positive, Enterococcus faecalis (ATCC 29212), Inactive at >128 μg/mL; for MIC: Enterococcus faecalis, ATCC29212, read-out: MIC (μg/mL) EF
[6] = system: Micrococcus luteus DMST 15503; test: Antimicrobial MIC, 2-fold serial dilution; settings: for MIC (μg/mL) MT: Gram-positive, Micrococcus luteus (DMST 15503), Inactive at >128 μg/mL; for MIC: Micrococcus luteus, DMST15503, read-out: MIC (μg/mL) MT
[7] = system: methicillin resistant Staphylococcus aureus NPRC 001R; test: Antimicrobial MIC, 2-fold serial dilution; settings: for MIC (μg/mL) MRSA: Gram-positive, Methicillin Resistant Staphylococcus aureus (NPRC 001R), Inactive at >128 μg/mL
[8] = system: Staphylococcus aureus ATCC 25923; test: Antimicrobial MIC, 2-fold serial dilution; settings: for MIC: Staphylococcus aureus, ATCC25923, read-out: MIC (μg/mL) SA; for MIC (μg/mL) SA: Gram-positive, Staphylococcus aureus (ATCC 25923), Inactive at >128 μg/mL
[9] = system: Streptococcus pyogenes ATCC, 19615; test: Antimicrobial MIC, 2-fold serial dilution; settings: for MIC (μg/mL) SP: Gram-positive, Streptococcus pyogenes (ATCC, 19615), Inactive at >128 μg/mL; for MIC: Streptococcus pyogenes, read-out: MIC (μg/mL) SP
[10] = system: Shigella flexneri DMST 4423; test: Antimicrobial MIC, 2-fold serial dilution; settings: for MIC (μg/mL) SF: Gram-negative, Shigella flexneri (DMST 4423), Inactive at >128 μg/mL
[11] = system: Pseudomonas aeruginosa ATCC 10145; test: Antimicrobial MIC, 2-fold serial dilution; settings: for MIC: Pseudomonas aeruginosa, ATCC10145, read-out: MIC (μg/mL) PA
[12] = system: Salmonella typhimurium DMST 562; test: Antimicrobial MIC, 2-fold serial dilution; settings: for MIC (μg/mL) STR: Gram-negative, Salmonella typhimurium (DMST 562), Inactive at >128 μg/mL
[13] = system: Escherichia coli TISTR 780; test: Antimicrobial MIC, 2-fold serial dilution; settings: for MIC (μg/mL) EC: Gram-negative, Escherichia coli (TISTR 780), Inactive at >128 μg/mL
[14] = system: Candida albicans ATCC 10231; test: Antimicrobial MIC, 2-fold serial dilution; settings: for MIC (μg/mL) CA: Fungi, Candida albicans (ATCC 10231), Inactive at >128 μg/mL

| Structure (SMILES) | Glycation inhibition (IC50, μM) [1] | Glucose consumption (IC50, μM) [2] | NO Inhibition (IC50, μM) [3] | MIC (μg/mL) EF [5] | MIC (μg/mL) MT [6] | MIC (μg/mL) MRSA [7] | MIC [8] [µg/mL] | MIC (μg/mL) SP [9] | MIC (μg/mL) SF [10] | MIC [11] [µg/mL] | MIC (μg/mL) STR [12] | MIC (μg/mL) CA [14] | MIC (μg/mL) ST [4] | MIC (μg/mL) EC [13] | other results |
| --- | --- | --- | --- | --- | --- | --- | --- | --- | --- | --- | --- | --- | --- | --- | --- |
| COc1cc(O)cc2oc(-c3ccccc3)cc(=O)c12 [Compound 18, 5-methoxy-7-hydroxyflavone] | Inactive | Inactive | Inactive | Inactive | Inactive | Inactive | 128 (≈ 477 µM) | Inactive | Inactive | 128 (≈ 477 µM) | Inactive | Inactive |  |  | MIC [4]: 128 µg/mL (≈ 477 µM); MIC ([13]; Escherichia coli, TISTR780, read-out: MIC (μg/mL) EC): 128 µg/mL (≈ 477 µM) |
| CC(C)=CCc1cc(-c2coc3c(CC=C(C)C)c(O)ccc3c2=O)ccc1O [Compound 20, erysubin F] | Inactive | Inactive | Inactive |  | Inactive | Inactive |  | Inactive | Inactive |  | Inactive |  | Inactive | Inactive | MIC [5]: 128 µg/mL (≈ 328 µM); MIC (μg/mL) PA ([11]; Gram-negative, Pseudomonas aeruginosa (ATCC 10145), Inactive at >128 μg/mL): Inactive |
| O=c1c(-c2ccc(O)cc2)coc2cc(O)cc(O)c12 [Compound 21, genistein] | Inactive | Inactive | Inactive | Inactive | Inactive | Inactive |  | Inactive | Inactive | 128 (≈ 474 µM) | Inactive | Inactive | Inactive | Inactive | MIC (μg/mL) SA [8]: Inactive |
| CC(C)=CCc1cc([C@@H]2CC(=O)c3c(O)cc(O)cc3O2)cc(CC=C(C)C)c1O [Compound 25, abyssinone V] | Inactive | Inactive | Inactive | Inactive |  | Inactive | 128 (≈ 313 µM) |  |  | 128 (≈ 313 µM) |  | Inactive |  | Inactive | MIC [4]: 128 µg/mL (≈ 313 µM); MIC [6]: 128 µg/mL (≈ 313 µM); MIC [9]: 128 µg/mL (≈ 313 µM); MIC ([10]; Shigella flexneri, DMST4423, read-out: MIC (μg/mL) SF): 128 µg/mL (≈ 313 µM); MIC ([12]; Salmonella enterica, TYPHIMURIUM, read-out: MIC (μg/mL) STR): 128 µg/mL (≈ 313 µM) |
| COc1ccc(C=CC(=O)O)c(O)c1 [Compound 28, 2-hydroxy-4-methoxy-cinnamic acid] | Inactive | Inactive | Inactive | Inactive | Inactive | Inactive |  | Inactive | Inactive | 128 (≈ 659 µM) | Inactive | Inactive | Inactive | Inactive | MIC (μg/mL) SA [8]: Inactive |
| O=c1c(O)c(-c2ccc(O)c(O)c2)oc2cc(O)cc(O)c12 [Quercetin, quercetin, reference compound] |  |  |  |  |  |  |  |  |  |  |  |  |  |  | IC50 ([1]; read-out: Glycation inhibition (IC50)): 59.1 ± 0.78 µM |
| CN[C@H](CC(C)C)C(=O)N[C@H]1C(=O)N[C@@H](CC(N)=O)C(=O)N[C@H]2C(=O)N[C@H]3C(=O)N[C@H](C(=O)N[C@H](C(=O)O)c4cc(O)cc(O)c4-c4cc3ccc4O)[C@H](O)c3ccc(c(Cl)c3)Oc3cc2cc(c3O[C@@H]2O[C@H](CO)[C@@H](O)[C@H](O)[C@H]2O[C@H]2C[C@](C)(N)[C@H](O)[C@H](C)O2)Oc2ccc(cc2Cl)[C@H]1O [Vancomycin, vancomycin, reference compound] |  |  |  |  |  |  | 0.5 (≈ 0.345 µM) |  |  |  |  |  |  |  | MIC [5]: 2 µg/mL (≈ 1.38 µM); MIC [6]: 2 µg/mL (≈ 1.38 µM); MIC ([7]; Staphylococcus aureus, MRSA, read-out: MIC (μg/mL) MRSA): 1 µg/mL (≈ 0.69 µM); MIC [9]: 2 µg/mL (≈ 1.38 µM); MIC ([14]; Candida albicans, ATCC10231, read-out: MIC (μg/mL) CA): 4 µg/mL (≈ 2.76 µM) |
